Assays:
Assay type in all cases: in vivo, Balb/c female mice
[1] = test system: ovalbumin-specific IgE; experiment: IgE levels in serum and bronchoalveolar lavage fluid (ELISA); details: asthma-induced mice, homoegonol study; for Total serum IgE level: Table 2
Protocol: (§1) To prepare bronchial asthma-induced experimental animals, six-week-old Balb/c female mice of mean weight about 20 g were used. After one week of adaptation, individuals which had no observed abnormality on a basic physical examination were targeted. 200 μL of phosphate buffered saline (PBS)(pH 7.4) in which 2 mg of aluminum hydroxide (A8222, Sigma, St. Louis, Mo.) and 20 μg of ovalbumin (A5503, Sigma, St. Louis, Mo.) were suspended was injected into the peritoneal cavity at two-week intervals to result in sensitization. On days 28 to 30 after the first intraperitoneal administration of ovalbumin, inhalation challenge was performed for 30 min with 1% ovalbumin using an ultrasonic atomizer. 24 hours after the last antigen administration, airway hyperresponsiveness was measured. After 24 hours, a lethal dose of pentobarbital (Entobar®, Hanlim Pharm Co., Ltd.) was administered, body weight measurement and bronchotomy were performed, and bronchoalveolar lavage was performed with a total 1.2 mL of physiological saline, and then, samples were collected. […] Eight white mice were used for each group. Experimental groups for homoegonol were a group (hE7.5) in which animals were orally administered with 7.5 mg/kg homoegonol 1 hour prior to ovalbumin inhalation, a group (hE15) in which animals were orally administered with 15 mg/kg homoegonol 1 hour prior to ovalbumin inhalation, and a group (hE30) in which animals were orally administered with 30 mg/kg homoegonol 1 hour prior to ovalbumin inhalation, and five white mice were used for each group.
To measure serum and bronchoalveolar lavage fluid ovalbumin-specific IgE levels caused by administration of styraxlignolide A, an immunoenzyme technique was used. 20 μg/mL of ovalbumin was dissolved in a 0.1 M NAHCO3 buffer (pH 8.3), and was placed into a 96-well flat bottom ELISA plate to be coated at 4° C. overnight. Non-specific binding was blocked with PBS containing 1% bovine serum albumin, and a serum sample was diluted 1:400 and was allowed to react at room temperature for 2 hours. Then, the plate was washed well, and anti-mouse IgE monoclonal antibody was diluted 1:300 and was allowed to react for 2 hours. Then, HRP-conjugated goat anti-rat IgG polyclonal antibody which was coupled to peroxidase was diluted 1:4000 and was allowed to react at room temperature for 1 hour, and then, was washed. For color development, 3,3′,5,5′-tetramethylbezidine substrate was allowed to react, and the spectroscopic absorbance was measured at 650 nm.
To measure IgE levels which are correlated with severity of asthma to examine the effect of homoegonol on asthma, IgE levels in serum and bronchoalveolar lavage fluid were measured according to the method in <Experimental Example 4>.

[2] = test system: goblet cells; experiment: Ratio of goblet cells to bronchial epithelial cells (PAS staining); details: asthma-induced mice, homoegonol study
Protocol: as §1
Lungs removed from each individual were subjected to conventional formalin fixation and paraffin embedding, and permanent section slides of 4 μm thickness were prepared, and periodic acid Schiff (PAS) staining was performed to determine goblet cells. Proliferation of goblet cells was assessed by measuring the ratio of goblet cells to bronchial epithelial cells.
In accordance with the method in <Experimental Example 7-2>, the ratio of goblet cells which were determined by periodic acid-Schiff staining to bronchial epithelial cells were measured to assess proliferation of goblet cells.

[3] = test system: inflammatory cells in bronchoalveolar lavage fluid; experiment: Inflammatory cell counts in bronchoalveolar lavage fluid (Diff-Quick staining); details: asthma-induced mice, homoegonol study, bronchoalveolar lavage fluid
Protocol: as §1
Bronchoalveolar lavage fluid was collected from individuals of each experimental group in <Example 2> and right after the collection, fluid was stained with trypan blue. The number of total cells except dead cells was calculated using a hemocytometer. Then, Diff-Quick staining (Sysmex, Swizerland) was performed after smear preparation with Cytospin II, and eosinophils and other inflammatory cells were differentially counted.
To examine the effect of homoegonol on asthma, variation in the numbers of asthma-related inflammatory cells was measured according to the method in <Experimental Example 3>.

[4] = test system: inflammatory cells in the airway mucosa; experiment: Inflammatory cell infiltration in airway mucosa, inflammatory index (H&E staining); details: asthma-induced mice, homoegonol study, scale 0-4
Protocol: as §1
Lungs removed from each individual were subjected to conventional formalin fixation and paraffin embedding, and permanent section slides of 4 μm thickness were prepared, and hematoxylin and eosin (H&E) staining was performed. After H&E staining, inflammatory index was measured from random five regions per section slide of each individual to calculate the mean value. Assessments were as follows: inflammatory index 0 is for the case that inflammatory cells are not observed around the bronchus; inflammatory index 1 is for the case that inflammatory cells are intermittently observed; inflammatory index 2 is for the case that thin inflammatory cell layers of one to two or three layers are observed around most of the bronchus; inflammatory index 3 is for the case that inflammatory cell layers of two or three to five or less layers are observed around most of the bronchus; and inflammatory index 4 is for the case that thick inflammatory cell layers of five or more layers are observed around most of the bronchus.
To examine the effect of homoegonol on asthma, lungs of which bronchoalveolar lavage was not performed were removed, and histopathological assessment was performed according to the method in <Experimental Example 7-1>. Since infiltration of inflammatory cells which are comprised of eosinophils, neutrophils, and macrophages are observed in an antigen-aroused bronchus, the present inventors tried to detect inflammatory cell infiltration.

With COc1ccc(-c2cc3cc(CCCO)cc(OC)c3o2)cc1OC [homoegonol] the “Total IgE level in bronchoalveolar lavage fluid” value (shortened to “Total IgE level”) ([1]; 7.5 mg/kg PO, 7.5 mg/kg) was 65.5957 ± 11.6656 ng/mL, the “serum IgE levels” value ([1]; 7.5 mg/kg PO) was 19.22 ± 4.9287 µg/mL and the “Total serum IgE level” value ([1]; 7.5 mg/kg PO) was 10.34 ± 6.0548 µg/mL. The “Total IgE level” value ([1]; 15 mg/kg PO, 15 mg/kg) was 48.4894 ± 4.1926 ng/mL, the “serum IgE levels” value ([1]; 15 mg/kg PO) was 10.74 ± 3.4612 µg/mL and the “Total serum IgE level” value ([1]; 15 mg/kg PO) was 9.94 ± 5.0656 µg/mL. The “Total IgE level” value ([1]; 30 mg/kg PO, 30 mg/kg) was 23.8085 ± 3.3515 ng/mL, the “serum IgE levels” value ([1]; 30 mg/kg PO) was 8.14 ± 5.9682 µg/mL and the “Total serum IgE level” value ([1]; 30 mg/kg PO) was 8.62 ± 2.4844 µg/mL. The “Goblet cells %/bronchial epithelial cell unit” value ([2]; 7.5 mg/kg PO, 7.5 mg/kg) was 36.5600±11.5613%, the “Goblet cells %/bronchial epithelial cell unit” value ([2]; 15 mg/kg PO, 15 mg/kg) was 32.4109±10.8037% and the “Goblet cells %/bronchial epithelial cell unit” value ([2]; 30 mg/kg PO, 30 mg/kg) was 25.0956±3.4033%. The “Number of cells, Other inflammatory cells” value ([3]; 7.5 mg/kg PO) was 33.40 ± 2.3467 ×10^3 cells/mouse, the “Number of cells, Eosinophils” value ([3]; 7.5 mg/kg PO, 7.5 mg/kg) was 12.80±2.50 ×10^3 cells/mouse and the “Number of cells, Total inflammatory cells” value ([3]; 7.5 mg/kg PO, 7.5 mg/kg) was 42.80±7.2060 ×10^3 cells/mouse. The “Number of cells, Other inflammatory cells” value ([3]; 15 mg/kg PO) was 30.00 ± 2.8267 ×10^3 cells/mouse, the “Number of cells, Eosinophils” value ([3]; 15 mg/kg PO, 15 mg/kg) was 6.32±0.86 ×10^3 cells/mouse and the “Number of cells, Total inflammatory cells” value ([3]; 15 mg/kg PO, 15 mg/kg) was 39.72±4.4400 ×10^3 cells/mouse. The “Number of cells, Other inflammatory cells” value ([3]; 30 mg/kg PO) was 28.4 ± 3.1739 ×10^3 cells/mouse, the “Number of cells, Eosinophils” value ([3]; 30 mg/kg PO, 30 mg/kg) was 5.48±2.02 ×10^3 cells/mouse and the “Number of cells, Total inflammatory cells” value ([3]; 30 mg/kg PO, 30 mg/kg) was 33.88±8.1589 ×10^3 cells/mouse. The “Inflammatory index, peribronchiolar” value ([4]; 7.5 mg/kg PO, 7.5 mg/kg) was 1.67±0.1491, the “Inflammatory index, perivascular” value ([4]; 7.5 mg/kg PO, 7.5 mg/kg) was 1.89±0.1791 and the “Inflammatory index, peribronchiolar” value ([4]; 15 mg/kg PO, 15 mg/kg) was 1.40±0.1549. The “Inflammatory index, perivascular” value ([4]; 15 mg/kg PO, 15 mg/kg) was 1.70±0.1449, the “Inflammatory index, peribronchiolar” value ([4]; 30 mg/kg PO, 30 mg/kg) was 1.00±0.2449 and the “Inflammatory index, perivascular” value ([4]; 30 mg/kg PO, 30 mg/kg) was 1.30±0.2025.
